Patent EP0609460A1, “PHARMACEUTICAL AGENT WITH A[…]” (KISLYAKOVA, Nonna Dmitrievna, priority 1992, dated 1994)

Legend:
[1] = system: hormone-susceptible DMBA-induced mammary gland cancer tumors; assay: DMBA-induced hormone-susceptible mammary gland cancer in female rats, daily oral treatment; type: in vivo
[2] = system: mammalian cancer cells; settings: in vitro, cited from earlier work
[3] = system: DMBA-induced mammary gland cancer; settings: cited from earlier work; for per cent of complete regression (disappearance of tumor) / per cent of partial decrease of tumors / tumors which did not regress at all / per cent of general regression of all tumors: after 30 days of administration; for per cent of general regression of all tumors: oil solutions, about 15 mg/kg
[4] = system: induced mammary gland cancer; assay: Induced mammary gland cancer in rats, long-term growing tumors with lost androgen susceptibility (Table 1); type: in vivo, White random-bred rats
[5] = system: hormone-susceptible malignant tumors in women; assay: Clinical use in volunteer patients; settings: long-term (up to 2 months) administration in low doses
Method: The duration of the course - 2 months.
The daily dose (with the patient's weight about 70 kg) consisted of 3 g DL-valine in combination with 25 mg (0.025 g or 5 tablets) methyltestosterone. The daile dose was divided into 3 single ones (1 g DL-valine in warm milk enterally and 1 tablet of methyltestosterone sublingually 3 times daily - on an empty stomach and before meals; and 1 tablet of methyltestosterone without DL-valine sublingually 2 times in the middle of the day before meals). The patient strictly observed the diet with the excess of protein, limited amount of carbohydrates and complete exclusion of animal fat and phospholipids (fish hard-roe, egg yolk), using no more than 1-2 table spoonfuls of vegetable oil daily.

Row | SMILES | per cent of complete regression (disappearance of tumor) [3] | per cent of partial decrease of tumors [3] | tumors which did not regress at all [3] | per cent of general regression of all tumors [3] | further results
1 | CC(C)C(N)C(=O)O (racemic) [DL-valine] | – | – | – | – | regression effect ([1]; DL-valine 275 mg/kg in the mixture): disappears completely; optimal dose of DL-valine ([1]; in the mixture): 550 mg/kg; damage of non-malignant cells [2]: without any damage; cytotoxic effect on mammalian cancer cells ([2]; compared with other DL-amino acids): the strongest cytotoxic effect
2 | C[C@@H]1C[C@@]2(C)[C@@H](CC[C@@H]3[C@@H]2CC[C@]2(C)[C@@H](O)CC[C@@H]32)CC1=O [2α -methyldihydrotestosterone] | 20% | 60% | 20% | 80% | –
3 | CCC(=O)O[C@H]1CC[C@H]2[C@@H]3CC[C@H]4CC(=O)[C@H](C)C[C@]4(C)[C@H]3CC[C@]12C [2α-methyldihydrotestosterone propionate] | 50% | 20% | 30% | 70% | –
4 | C[C@]12C=CC(=O)C=C1CC[C@@H]1[C@@H]2CC[C@@]2(C)[C@H]1CC[C@]2(C)O [methandrostenolone] | – | – | – | – | optimal dose of methandrostenolone in mixture with DL-valine ([4]; long-term growing tumors 10 cm³ or larger): 20-25 mg/kg body weight
5 | C[C@]12CCC(=O)C=C1CC[C@@H]1[C@@H]2CC[C@@]2(C)[C@H]1CC[C@]2(C)O [methyltestosterone] | – | – | – | – | minimal effective dose ([1]; Rattus norvegicus, po, without DL-valine, read-out: dose from which methyltestosterone alone causes regression): ≥ 25 mg/kg; antiblastic effect alone, without DL-valine ([1]; nontherapeutic doses 5-10 mg/kg): cause no regression or even inhibition of the growth; better dose of methyltestosterone in combination with DL-valine ([1]; tumor sizes over 6.0 cm³ up to 8-10 cm³): 10 mg/kilo body weight; dose of methyltestosterone giving the optimal antiblastic effect in combination with DL-valine ([1]; tumors of 4.0 cm³ to 6.0 cm³): 5 mg per kilo body weight; experimental therapeutic dose ([3]; administered orally): 25-40 mg/kg per day; side effects [5]: weak manifestations of virilism
6 | COc1cc(C=NNC(=O)c2ccncc2)ccc1O [phthivazid] | – | – | – | – | optimal dose of phthivazid ([4]; with DL-valine and methandrostenolone, found empirically): 45-50 mg/kg body weight
7 | CCC(=O)O[C@H]1CC[C@H]2[C@@H]3CCC4=CC(=O)CC[C@]4(C)[C@H]3CC[C@]12C [testosterone propionate] | 10% | 30% | 60% | 40% | –
